Results as given in DBAASP.
Converted amounts (≈) assume the structure as drawn. One block for each compound: values may come before it.

Legend:
Test in all cases: ≥ marks a high value that may be exact or a test limit, other limits are often not marked, values filed in µg/mL are converted to µM
[1] = tested on: Staphylococcus aureus ATCC 700699
Sporothrix schenckii = tested on: Sporothrix schenckii
[2] = tested on: Staphylococcus aureus ATCC 33592
Cryptococcus neoformans = tested on: Cryptococcus neoformans
[3] = tested on: Staphylococcus aureus ATCC 700698
[4] = tested on: Staphylococcus aureus ATCC 25923
[5] = tested on: Candida albicans ATCC 10231
[6] = tested on: Candida parapsilosis ATCC 22019
[7] = tested on: Escherichia coli ATCC 9637
[8] = tested on: Bacillus subtilis ATCC 6633
[9] = tested on: Pseudomonas aeruginosa ATCC BAA-427
[10] = tested on: Staphylococcus aureus ATCC 29213
[11] = tested on: Klebsiella pneumoniae ATCC 27736
[12] = tested on: Staphylococcus aureus ATCC BAA-44
[13] = tested on: Escherichia coli ATCC 51659
Klebsiella pneumoniae = tested on: Klebsiella pneumoniae
[14] = tested on: Pseudomonas aeruginosa ATCC BAA-2110
[15] = tested on: Acinetobacter baumannii ATCC 9955
[16] = tested on: Enterococcus faecalis ATCC 22192
[17] = tested on: Klebsiella pneumoniae ATCC 33495
Acinetobacter baumannii = tested on: Acinetobacter baumannii
[18] = tested on: Escherichia coli ATCC 25922
[19] = tested on: Enterococcus faecalis ATCC 51299
Staphylococcus aureus = tested on: Staphylococcus aureus
[20] = tested on: Klebsiella pneumoniae ATCC BAA-1705
[21] = tested on: Pseudomonas aeruginosa ATCC 9027
[22] = tested on: Klebsiella pneumoniae ATCC 13883
[23] = tested on: Escherichia coli ATCC 4157
[24] = tested on: Acinetobacter baumannii ATCC BAA-1794
Candida albicans = tested on: Candida albicans
[25] = tested on: Staphylococcus epidermidis
[26] = tested on: Pseudomonas aeruginosa ATCC 27853
Pseudomonas aeruginosa = tested on: Pseudomonas aeruginosa
Escherichia coli = tested on: Escherichia coli
[27] = tested on: Escherichia coli ATCC 8739
[28] = tested on: Acinetobacter baumannii AbR-215
[29] = tested on: Acinetobacter baumannii Ab41
[30] = tested on: Mycobacterium tuberculosis CAS3
[31] = tested on: Mycobacterium tuberculosis FYX
[32] = tested on: Mycobacterium tuberculosis WXY
[33] = tested on: Streptococcus sanguinis ATCC 10556
[34] = tested on: Streptococcus sobrinus ATCC 6715
[35] = tested on: Streptococcus mutans UA159
[36] = tested on: Staphylococcus aureus USA 300 LAC
[37] = tested on: Pseudomonas aeruginosa PAO1
[38] = tested on: Staphylococcus aureus USA 300
[39] = tested on: Bacillus subtilis KCTC 3068
[40] = tested on: Salmonella typhimurium CMCC 50013

- MIC [1]: 1.6 µM (≈ 4.69 µg/mL)
- MIC (Sporothrix schenckii): 13.6 µM (≈ 39.9 µg/mL)
- MIC [2]: 0.8 µM (≈ 2.35 µg/mL)
- MIC (Cryptococcus neoformans): 6.8 µM (≈ 19.9 µg/mL)
- MIC [3]: 1.6 µM (≈ 4.69 µg/mL)
- MIC [4]: 3 µM (≈ 8.8 µg/mL)
- MIC [5]: 3 µM (≈ 8.8 µg/mL)
- MIC [6]: 6.8 µM (≈ 19.9 µg/mL)
- MIC [7]: 3.3 µM (≈ 9.68 µg/mL)
- MIC [8]: 3 µM (≈ 8.8 µg/mL)
- MIC [9]: 6.8 µM (≈ 19.9 µg/mL)
- MIC [10]: 1.6 µM (≈ 4.69 µg/mL)
- MIC [11]: 3.3 µM (≈ 9.68 µg/mL)
- MIC [12]: 1.6 µM (≈ 4.69 µg/mL)
SMILES: CC[C@H](C)[C@H](NC(=O)[C@H](C)NC(=O)[C@H](CCCCN)NC(=O)CNC(=O)[C@H](C)NC(=O)[C@H](Cc1cnc[nH]1)NC(=O)[C@@H](NC(=O)[C@H](C)NC(=O)[C@@H]1CCCN1C(=O)[C@H](CCCCN)NC(=O)[C@@H](NC(=O)[C@H](CC(C)C)NC(=O)[C@H](Cc1c[nH]c2ccccc12)NC(=O)CNC(=O)[C@H](Cc1ccccc1)NC(=O)[C@@H](N)Cc1ccccc1)[C@@H](C)CC)[C@@H](C)CC)C(=O)N[C@@H](Cc1cnc[nH]1)C(=O)NCC(=O)N[C@@H](CC(C)C)C(=O)N[C@H](C(=O)N[C@@H](Cc1cnc[nH]1)C(=O)N[C@@H](CCCN=C(N)N)C(=O)N[C@@H](CCCN=C(N)N)C(=O)N[C@@H](CCCN=C(N)N)C(=O)N[C@@H](Cc1cnc[nH]1)C(=O)O)[C@@H](C)CC [FFGWLIKPAIHAGKAIHGLIHRRRH]

- MIC [2]: 10.6 µM (≈ 28 µg/mL)
- MIC [13]: ≥ 53.2 µM
- MIC (Klebsiella pneumoniae): 48.6 µM (≈ 128 µg/mL)
- MIC [14]: 15.9 µM (≈ 42 µg/mL)
- MIC [15]: 15.9 µM (≈ 42 µg/mL)
- MIC [16]: 15.9 µM (≈ 42 µg/mL)
- MIC [17]: 1.97 µM (≈ 5.2 µg/mL)
- MIC [4]: 10.6 µM (≈ 28 µg/mL)
- MIC [5]: > 48.6 µM
- MIC (Acinetobacter baumannii): 12.2 µM (≈ 32 µg/mL)
- MIC [18]: 12.2 µM (≈ 32 µg/mL)
- MIC [19]: 15.9 µM (≈ 42 µg/mL)
- MIC (Staphylococcus aureus): 24.3 µM (≈ 64 µg/mL)
- MIC [20]: 10.6 µM (≈ 28 µg/mL)
- MIC [10]: 48.6 µM (≈ 128 µg/mL)
- MIC [21]: 3.8 µM (≈ 10 µg/mL)
- MIC [22]: 24.3 µM (≈ 64 µg/mL)
- MIC [23]: 7.97 µM (≈ 21 µg/mL)
- MIC [24]: 3.8 µM (≈ 10 µg/mL)
- MIC (Candida albicans): > 48.6 µM
- MIC [25]: 24.3 µM (≈ 64 µg/mL)
- MIC [26]: 24.3 µM (≈ 64 µg/mL)
- MIC (Pseudomonas aeruginosa): 8.59 µM (≈ 22.6 µg/mL)
- MIC (Escherichia coli): 34.4 µM (≈ 90.5 µg/mL)
SMILES: CC[C@H](C)[C@H](NC(=O)[C@H](CCCCN)NC(=O)[C@H](CCCN=C(N)N)NC(=O)[C@H](CCCN=C(N)N)NC(=O)[C@H](CC(C)C)NC(=O)[C@H](CCCCN)NC(=O)[C@H](CCCCN)NC(=O)[C@H](Cc1ccccc1)NC(=O)[C@H](CC(C)C)NC(=O)CN)C(=O)N[C@@H](CCCCN)C(=O)N[C@@H](CCCCN)C(=O)NCC(=O)N[C@@H](Cc1ccccc1)C(=O)N[C@@H](CCCCN)C(=O)N[C@@H](CCCCN)C(=O)N[C@H](C(=O)N[C@@H](Cc1ccccc1)C(=O)N[C@@H](CCCCN)C(=O)N[C@@H](CCCN=C(N)N)C(=O)N[C@@H](CC(C)C)C(=O)O)[C@@H](C)CC [GLFKKLRRKIKKGFKKIFKRL]

- MIC (Staphylococcus aureus): ≥ 80.6 µM
- MIC [27]: 3.2 µM (≈ 8.06 µg/mL)
- MIC [28]: 3.2 µM (≈ 8.06 µg/mL)
- MIC [29]: 3.2 µM (≈ 8.06 µg/mL)
SMILES: CC(C)C[C@H](NC(=O)[C@H](CCCCN)NC(=O)[C@H](C)NC(=O)[C@H](C)NC(=O)[C@H](C)NC(=O)[C@H](C)NC(=O)[C@H](C)NC(=O)[C@H](C)NC(=O)[C@H](CCCCN)NC(=O)[C@H](CC(C)C)NC(=O)[C@H](C)NC(=O)[C@H](C)NC(=O)[C@H](CCCCN)NC(=O)[C@H](C)NC(=O)[C@H](C)NC(=O)[C@H](CCCCN)NC(=O)[C@H](C)NC(=O)[C@H](C)NC(=O)[C@H](CC(C)C)NC(=O)[C@H](CCCCN)NC(=O)[C@H](C)NC(=O)[C@H](C)NC(=O)[C@H](C)NC(=O)[C@H](C)NC(=O)[C@H](C)NC(=O)[C@H](C)NC(=O)[C@H](CCCCN)NC(=O)[C@@H](N)CC(C)C)C(=O)O [LKAAAAAAKLAAKAAKAALKAAAAAAKL]

- MIC [30]: ≥ 120 µM
- MIC [31]: ≥ 60.2 µM
- MIC [32]: ≥ 60.2 µM
SMILES: CSCC[C@H](NC(=O)[C@H](CCCCN)NC(=O)[C@H](CCCCN)NC(=O)[C@H](CC(C)C)NC(=O)[C@H](CC(C)C)NC(=O)[C@H](CCCCN)NC(=O)[C@H](CCCCN)NC(=O)[C@H](CC(C)C)NC(=O)[C@H](CC(C)C)NC(=O)[C@@H](N)CCSC)C(=O)O [MLLKKLLKKM]

- MIC [33]: ≥ 153 µM
- MIC [34]: ≥ 38.2 µM
- MIC [35]: ≥ 38.2 µM
SMILES: NCCCC[C@H](NC(=O)CNC(=O)[C@H](CCCCN)NC(=O)[C@H](CCCCN)NC(=O)[C@H](Cc1ccccc1)NC(=O)[C@H](Cc1ccccc1)NC(=O)[C@H](CCCCN)NC(=O)[C@H](CCCCN)NC(=O)[C@H](Cc1ccccc1)NC(=O)[C@H](Cc1ccccc1)NC(=O)[C@H](CCCCN)NC(=O)CNC(=O)[C@@H](N)Cc1c[nH]c2ccccc12)C(=O)O [WGKFFKKFFKKGK]

- MIC [36]: 6.2 µM (≈ 7.88 µg/mL)
- MIC [37]: 6.2 µM (≈ 7.88 µg/mL)
- MIC [18]: 25 µM (≈ 31.8 µg/mL)
- MIC [38]: 6.2 µM (≈ 7.88 µg/mL)
- MIC [22]: 25 µM (≈ 31.8 µg/mL)
SMILES: CC[C@H](C)[C@H](NC(=O)[C@H](CCCN=C(N)N)NC(=O)[C@H](CCCN=C(N)N)NC(=O)[C@H](CC(C)C)NC(=O)[C@H](Cc1c[nH]c2ccccc12)NC(=O)[C@H](CCCN=C(N)N)NC(=O)[C@@H](N)Cc1c[nH]c2ccccc12)C(=O)N[C@@H](Cc1c[nH]c2ccccc12)C(N)=O [WRWLRRIW]

SMILES: NCCCC[C@H](NC(=O)[C@H](CCCN=C(N)N)NC(=O)CNC(=O)[C@@H](N)Cc1ccc(O)cc1)C(=O)N[C@@H](CCCCN)C(=O)N[C@@H](CCCN=C(N)N)C(=O)N[C@@H](CCCN=C(N)N)C(=O)N[C@@H](CCC(N)=O)C(=O)N[C@@H](CCCN=C(N)N)C(=O)N[C@@H](CCCN=C(N)N)C(=O)N[C@@H](CCCN=C(N)N)C(=O)O [YGRKKRRQRRR]
- MIC [18]: 15.5 µM (≈ 24.1 µg/mL)
- MIC [39]: 26.4 µM (≈ 41.2 µg/mL)
- MIC [10]: 16.6 µM (≈ 25.9 µg/mL)
- MIC [40]: 29 µM (≈ 45.2 µg/mL)
